From PubChem BioAssay (NCI) come the findings set out here.

Holding throughout (assay): NCI anticancer screen, dose series, 48 h
Assay [1] has as its system SW-620 colon.
Assay [2] deals with T-47D breast.
In assay [3] the test system is SNB-19 CNS.
Assay [4] deals with HL-60(TB) leukemia.
In assay [5] the test system is ACHN renal.
Assay [6] relates to NCI-H522 lung.
For assay [7], the system named is MOLT-4 leukemia.
For assay [8], the system named is MDA-MB-231 breast.
Assay [9] has as its system CAKI-1 renal.
Assay [10] has as its system SK-MEL-28 melanoma.
In assay [11] the test system is HOP-62 NSCLC.
Assay [12] concerns RPMI-8226 leukemia.
In assay [13] the test system is NCI-H460 lung.

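Assay format: 96-well plates, 48-hour exposure. At the TGI there is no net growth.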

With `O=S(=O)(Nc1ccccc1S(=O)(=O)c1ccccc1)c1ccccc1`, the TGI in [1], in assay [2], in [3], in assay [4], in assay [5] and in assay [6] was above 100 µM throughout. Moreover, the TGI in assay [7], in assay [8], in assay [9], in assay [10], in assay [11] and in assay [12] was above 100 µM in each case.

In the case of `CCNC1CC(C(C)(C)NCC)CC=C1C` (configuration not stated), the TGI in [1], in assay [2], in assay [3], in [4], in assay [6] and in assay [13] was above 100 µM throughout. The TGI in assay [7], in assay [8], in assay [10] and in assay [11] was above 100 µM throughout.

With `CCOC(=O)c1sc2nc(SC)nc(Nc3ccc(OC)c(OC)c3)c2c1N`, the TGI in assay [1] was above 100 µM; in assay [2], above 100 µM; in assay [3] it was 56 µM; in assay [4] it was above 100 µM; in assay [5] it was above 100 µM; in assay [6], above 100 µM. Besides, the TGI in assay [13] is above 100 µM; in assay [8], 82.4 µM; in [9], above 100 µM; in assay [10], 52.7 µM; in assay [11], 26 µM; in assay [12] it was above 100 µM.

As for `COC(=O)[C@]1(c2cc3ccccc3n2S(=O)(=O)c2ccccc2)CC2CCC1NC2` (some centres not stated), the TGI is 31.3 µM in assay [1]; 27.2 µM in assay [2]; 28 µM in [3]; 16.9 µM in assay [4]; 51.3 µM in assay [5]; 30.6 µM in [6]. For the same compound, the TGI in [13] was 26.9 µM; in [8] it was 27.1 µM; in [9], 29.4 µM; in [10] it was 32 µM; in [11], 34 µM; in assay [12] it was 23.1 µM.

Turning to `COc1cc2c[n+](C)c3c4ccccc4ccc3c2cc1OC`, the TGI in [1] was above 63.6 µM; in [2], 9.22 µM; in assay [3], 33.6 µM; in [5], above 100 µM; in [6], 5.57 µM; in assay [13], above 51.2 µM. The TGI is 20.6 µM in assay [7]; 14.8 µM in assay [8]; above 100 µM in assay [9]; 18.1 µM in assay [10]; 37.4 µM in assay [11]; 10.1 µM in [12].

Take `Cc1ccc(S(=O)(=O)n2ccn3c(=O)cc(C)nc23)cc1`: the TGI in assay [1], in assay [2], in assay [3], in assay [4], in assay [5] and in assay [13] was above 10 µM each time. For the same compound, the TGI in assay [7], in assay [8], in assay [9], in assay [10], in assay [11] and in [12] was above 10 µM in each case.

In the case of `Cc1sc(N=Nc2c(O)[nH]c3ccccc23)nc1-c1ccccc1`, the TGI in [1] is 71.4 µM; in [2], 33.1 µM; in [3], 37.3 µM; in assay [4], 25 µM; in assay [5], 31.1 µM; in [13], 42.2 µM. Moreover, the TGI in assay [7] came to 65.4 µM; in [8], 33.3 µM; in assay [9], 32.8 µM; in assay [10] it was 79.8 µM; in [11] it was 33.1 µM.

For `CCCNc1[nH]c(C(C)=O)c(N)c1C(=S)Nc1ccccc1`, the TGI in assay [1], in [2], in assay [3], in assay [4], in [5] and in [6] was above 100 µM in each case. Further, the TGI in assay [13] was above 100 µM; in assay [7], above 100 µM; in [8], above 100 µM; in assay [9], above 100 µM; in assay [10], 68.3 µM; in assay [11] it was above 100 µM.

Turning to `CCCCCCCCCCCCCCCCCCNc1ccn(C2OC(CO)C(OP(=O)(O)OCC3CCC(n4ccc(N)nc4=O)O3)C2O)c(=O)n1` (configuration not stated), the TGI in [1] is above 100 µM; in assay [2] it was above 100 µM; in assay [3], above 100 µM; in assay [4] it was 43.6 µM; in assay [5], above 100 µM; in assay [6] it was above 100 µM. The TGI was above 100 µM in [13]; 10.2 µM in assay [7]; above 100 µM in assay [8]; above 100 µM in assay [9]; above 100 µM in [10]; above 100 µM in assay [11].

As for `O=C1c2c(Br)sc(Br)c2[C@H]2NC(=S)O[C@@H]12`, the TGI in [1] was determined as 11.3 µM; in assay [2], 69.3 µM; in assay [3], 50.8 µM; in [5] it was 31.6 µM; in [6] it was 3.74 µM; in [13], 38.3 µM. The TGI in assay [7] was found to be 5.31 µM; in [8], 32.2 µM; in assay [9], 26.7 µM; in assay [10] it was 29.6 µM; in [11], 34.9 µM; in assay [12], 45.5 µM.

In the case of `CCCCc1ccc(Nc2nc(Cl)c3[nH]cnc3n2)cc1`, the TGI in assay [1] was 37.4 µM; in assay [2], 37.2 µM; in assay [3] it was 43.5 µM; in assay [4] it was above 100 µM; in assay [5], above 100 µM; in assay [6], 65.3 µM. Also, the TGI was above 100 µM in assay [7]; 30.2 µM in [8]; 54.1 µM in assay [9]; 27.8 µM in assay [11]; above 100 µM in assay [12].

Turning to `C=CCCCC1(C)CCCCNC1=O` (configuration not stated), the TGI in [1], in assay [2], in assay [3], in assay [4], in assay [5] and in assay [13] was above 10 µM each time. For the same compound, the TGI in assay [7], in assay [8], in [9], in assay [10], in [11] and in assay [12] was above 10 µM each time.

For the compound `COc1ccc(C2=C(OC(C)=O)c3cccn3-c3ccccc3S2)cc1`, the TGI was above 10 µM in assay [1]; above 10 µM in assay [2]; 4.57 µM in assay [4]; above 10 µM in [7]; above 10 µM in assay [8]; above 10 µM in assay [9]. For the same compound, the TGI in assay [10], in assay [11] and in assay [12] was above 10 µM in each case.

On to `CC(=O)CN=C(C)NNc1ccc([N+](=O)[O-])cc1[N+](=O)[O-]`, for which the TGI in assay [1], in [2], in assay [3], in [5], in [6] and in [13] was above 100 µM in each case. In addition, the TGI in assay [7], in assay [8], in assay [9], in [10], in assay [11] and in assay [12] was above 100 µM each time.

For the compound `Cc1cccc(C)c1NC(=S)/N=C/C1=C(O)c2ccccc2C1=O`, the TGI in assay [1] is above 100 µM; in [2], above 100 µM; in [3], above 100 µM; in assay [4], above 100 µM; in assay [5], above 100 µM; in [6], 17.9 µM. Moreover, the TGI is above 100 µM in assay [13]; above 100 µM in assay [8]; 68.9 µM in assay [9]; above 100 µM in assay [10]; above 100 µM in assay [11]; 31 µM in [12].

As to `CC(C)CCNC(=O)c1ccc(CNC(=O)/C=C/c2ccc(-c3ccccc3[N+](=O)[O-])o2)cc1`, the TGI in assay [1] was above 100 µM; in assay [2] it was 63.5 µM; in assay [3] it was above 100 µM; in [4], above 100 µM; in assay [5] it was above 100 µM; in assay [13] it was above 100 µM. Also, the TGI in assay [7] was above 100 µM; in assay [8] it was above 100 µM; in assay [9], above 100 µM; in [10], above 100 µM; in [11], 60.8 µM; in assay [12], above 100 µM.

With `OCCOCCO[P+]1(OCCOCCO)n2c3ccc2C(c2ccccc2)=C2C=CC(=N2)C(c2ccccc2)=c2ccc(n21)=C(c1ccccc1)C1=NC(=C3c2ccccc2)C=C1`, the TGI in assay [1] amounted to 1.31 µM; in assay [2], 2.04 µM; in [4], 0.18 µM; in assay [5] it was 1.05 µM; in [6], 0.448 µM; in [13], 0.886 µM. The TGI in assay [7] amounted to 0.189 µM; in assay [8], 0.247 µM; in assay [9], 3.79 µM; in assay [10], 0.778 µM; in assay [12] it was 0.0896 µM.

As for `Nc1nc(Cl)cc(Nc2ccc3c(c2)CCC3)n1`, the TGI in [1] is above 100 µM; in assay [2], above 100 µM; in [3], above 100 µM; in assay [4] it was 80.9 µM; in assay [5], above 100 µM; in [6], above 100 µM. Also, the TGI was above 100 µM in assay [13]; 84.7 µM in assay [7]; above 100 µM in [8]; above 100 µM in [9]; above 100 µM in assay [10]; 65.1 µM in assay [12].

As to `CNC(=O)N(CCC#N)CCN(CCN(C(=O)NC)c1ccccc1)C(=O)NC`, the TGI in assay [1], in [2], in assay [3], in assay [5], in assay [6] and in assay [13] was above 100 µM throughout. For the same compound, the TGI in assay [7], in assay [8], in [9], in [10], in [11] and in [12] was above 100 µM in each case.

On to `CC(=O)OCCn1c(Cc2ccc([N+](=O)[O-])cc2)nn(C(C)=O)c1=O`, for which the TGI in [1], in assay [2], in [3], in [4], in [5] and in assay [6] was above 100 µM in each case. Also, the TGI in [13], in [7], in [8], in assay [9], in assay [10] and in assay [12] was above 100 µM throughout.

Consider `CN1c2ccccc2C2c3c(O)ccc(O)c3C=C([N+](=O)[O-])C21` (configuration not stated), for which the TGI is above 100 µM in assay [2]; 2.03 µM in assay [3]; 3.17 µM in assay [4]; 1.97 µM in assay [5]; 0.17 µM in assay [6]; 6.02 µM in [13]. Moreover, the TGI in [7] was above 27.4 µM; in [8] it was 7.44 µM; in [9] it was 5.16 µM; in assay [10] it was 11.3 µM; in assay [11], 5.96 µM.

As for `CC(O[Si](C)(C)C(C)(C)C)[C@H](NC(=O)OCC(Cl)(Cl)Cl)C(=O)O` (some centres not stated), the TGI in assay [1], in assay [2], in assay [3], in assay [4], in assay [5] and in assay [6] was above 100 µM each time. Moreover, the TGI in assay [13], in assay [7], in assay [8], in assay [10], in assay [11] and in [12] was above 100 µM each time.

Consider `C=CCSc1nn(CC=C)cc2ncnc1-2`, for which the TGI in [1], in [2], in assay [3], in [4], in assay [5] and in assay [13] was above 100 µM throughout. The TGI in [7], in assay [8], in assay [9], in [10], in assay [11] and in assay [12] was above 100 µM throughout.
